32 compounds from US20110077248A1, “IMIDAZOPYRIDINE AND RELATED ANALOGS AS SIRTUIN MODULATORS” (Sirtris Pharmaceuticals, Inc., priority 2008, published 2011) can be followed below.

The term Emax denotes the size of the effect at its maximum, as opposed to the concentration needed.

The target of this assay is T1, SIRT1 (Homo sapiens, UniProt Q96EB6).
T1 construct: His-tag (N); made in house; host or cells: E. coli BL21(DE3), T7-promoter vector
T1 sequence (Q96EB6 1-747): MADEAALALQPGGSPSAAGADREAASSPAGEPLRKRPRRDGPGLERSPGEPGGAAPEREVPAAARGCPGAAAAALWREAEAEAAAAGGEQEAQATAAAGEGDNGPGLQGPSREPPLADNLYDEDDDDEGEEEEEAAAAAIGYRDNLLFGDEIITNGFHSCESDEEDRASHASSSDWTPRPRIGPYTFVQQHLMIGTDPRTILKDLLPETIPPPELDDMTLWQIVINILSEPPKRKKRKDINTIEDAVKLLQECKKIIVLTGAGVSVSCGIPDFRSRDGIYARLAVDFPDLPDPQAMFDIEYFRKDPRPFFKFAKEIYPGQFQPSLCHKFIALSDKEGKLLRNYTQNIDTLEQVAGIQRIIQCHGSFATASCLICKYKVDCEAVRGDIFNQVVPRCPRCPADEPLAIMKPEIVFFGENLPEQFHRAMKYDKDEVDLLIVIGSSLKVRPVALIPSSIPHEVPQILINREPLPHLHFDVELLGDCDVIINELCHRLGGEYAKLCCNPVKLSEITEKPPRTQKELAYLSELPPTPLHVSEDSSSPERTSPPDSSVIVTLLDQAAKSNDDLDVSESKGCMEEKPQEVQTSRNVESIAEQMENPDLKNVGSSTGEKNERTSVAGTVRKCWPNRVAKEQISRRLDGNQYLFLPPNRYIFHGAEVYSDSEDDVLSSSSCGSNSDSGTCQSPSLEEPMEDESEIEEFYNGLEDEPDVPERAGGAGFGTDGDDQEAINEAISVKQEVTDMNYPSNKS
Briefly: Mass spectrometry based assay for modulators of SIRT1 activity (deacetylation of p53-based acetylated peptide). The format is biochemical. The following applies: for EC1.5: concentration of test compound that results in 150% activation of SIRT1, 0.5 μM peptide substrate, 120 μM βNAD+, 10 nM SIRT1, 25 min, 25° C.; for Emax: percent maximum fold activation of SIRT1. The source says:
A mass spectrometry based assay was used to identify modulators of SIRT1 activity. The mass spectrometry based assay utilizes a peptide having 20 amino acid residues as follows: Ac-EE-K(biotin)-GQSTSSHSK(Ac)NleSTEG-K(5TMRi)-EE-NH2 (SEQ ID NO: 1) wherein K(Ac) is an acetylated lysine residue and Nle is a norleucine. The peptide is labeled with the fluorophore 5TMR (excitation 540 nm/emission 580 nm) at the C-terminus. The sequence of the peptide substrate is based on p53 with several modifications. In addition, the methionine residue naturally present in the sequence was replaced with the norleucine because the methionine may be susceptible to oxidation during synthesis and purification.
The mass spectrometry assay is conducted as follows: 0.5 μM peptide substrate and 120 μM βNAD+ is incubated with 10 nM SIRT1 for 25 minutes at 25° C. in a reaction buffer (50 mM Tris-acetate pH 8, 137 mM NaCl, 2.7 mM KCl, 1 mM MgCl2, 5 mM DTT, 0.05% BSA). Test compounds may be added to the reaction as described above. The SirT1 gene is cloned into a T7-promoter containing vector and transformed into BL21(DE3). After the 25 minute incubation with SIRT1, 10 μL of 10% formic acid is added to stop the reaction. Reactions are sealed and frozen for later mass spec analysis. Determination of the mass of the substrate peptide allows for precise determination of the degree of acetylation (i.e. starting material) as compared to deacetylated peptide (product).
A control for inhibition of sirtuin activity is conducted by adding 1 μL of 500 mM nicotinamide as a negative control at the start of the reaction (e.g., permits determination of maximum sirtuin inhibition). A control for activation of sirtuin activity is conducted using 10 nM of sirtuin protein, with 1 μL of DMSO in place of compound, to determinine the amount of deacetylation of the substrate at a given timepoint within the linear range of the assay. This timepoint is the same as that used for test compounds and, within the linear range, the endpoint represents a change in velocity.
For the above assay, SIRT1 protein was expressed and purified as follows. The SirT1 gene was cloned into a T7-promoter containing vector and transformed into BL21(DE3). The protein was expressed by induction with 1 mM IPTG as an N-terminal His-tag fusion protein at 18° C. overnight and harvested at 30,000×g. Cells were lysed with lysozyme in lysis buffer (50 mM Tris-HCl, 2 mM Tris[2-carboxyethyl]phosphine (TCEP), 10 μM ZnCl2, 200 mM NaCl) and further treated with sonication for 10 min for complete lysis. The protein was purified over a Ni-NTA column (Amersham) and fractions containing pure protein were pooled, concentrated and run over a sizing column (Sephadex S200 26/60 global). The peak containing soluble protein was collected and run on an Ion-exchange column (MonoQ). Gradient elution (200 mM-500 mM NaCl) yielded pure protein. This protein was concentrated and dialyzed against dialysis buffer (20 mM Tris-HCl, 2 mM TCEP) overnight. The protein was aliquoted and frozen at −80° C. until further use.
Sirtuin modulating compounds that activated SIRT1 were identified using the assay described above and are shown below in Table 1. The EC1.5 values represent the concentration of test compounds that result in 150% activation of SIRT1. The EC1.5 values for the activating compounds are represented by A (EC1.5<1.0 uM), B (EC1.5 1-25 uM), C (EC1.5>25 uM). The percent maximum fold activation is represented by A (Fold activation >200%) or B (Fold Activation <200%). “NT” indicates the compound was not tested in a particular assay.

For the compound `Cc1cnc(NC(=O)c2nccn3cc(-c4ccccc4C(F)(F)F)nc23)s1` [Compound 173], the EC1.5 entry was “A (EC1.5<1.0 uM)” and the Emax is greater than 200%.
The corresponding values for `O=C(Nc1cccnn1)c1nccn2cc(-c3ccccc3C(F)(F)F)nc12` [Compound 174] are “B (EC1.5 1-25 uM)” and greater than 200%.
In the case of `O=C(Nc1ccncn1)c1nccn2cc(-c3ccccc3C(F)(F)F)nc12` [Compound 175], the EC1.5 result is “B (EC1.5 1-25 uM)” and the Emax is greater than 200%.
For `O=C(Nc1cnccn1)c1nccn2cc(-c3ccccc3C(F)(F)F)nc12` [Compound 176] the same measures were “B (EC1.5 1-25 uM)” and greater than 200%.
The corresponding values for `O=C(Nc1nc(CN2CCOCC2)cs1)c1cccn2nc(-c3cccc(C(F)(F)F)c3)nc12` [Compound 177, N-(4-(morpholinomethyl)thiazol-2-yl)-2-(3-(trifluoromethyl)phenyl)-[1,2,4]triazolo[1,5-a]pyridine-8-carboxamide] are “B (EC1.5 1-25 uM)” and greater than 200%.
For `O=C(Nc1cccc(CN2CCOCC2)n1)c1cccn2nc(-c3cccc(C(F)(F)F)c3)nc12` [Compound 178], the EC1.5 result was “B (EC1.5 1-25 uM)” and the Emax is greater than 200%.
For `O=C(Nc1nc(CN2CCOCC2)cs1)c1cccn2nc(-c3cccc(OC(F)(F)F)c3)nc12` [Compound 179] the same measures were “B (EC1.5 1-25 uM)” and greater than 200%.
For `O=C(Nc1cccc(CN2CCOCC2)n1)c1cccn2nc(-c3cccc(OC(F)(F)F)c3)nc12` [Compound 180] the same measures were “B (EC1.5 1-25 uM)” and greater than 200%.
The corresponding values for `O=C(Nc1nccs1)c1cccn2nc(-c3cccc(N4CCOCC4)c3)nc12` [Compound 181] are “B (EC1.5 1-25 uM)” and less than 200%.
For the compound `O=C(Nc1ccccn1)c1cccn2nc(-c3cccc(N4CCOCC4)c3)nc12` [Compound 182], the EC1.5 result is on record as “B (EC1.5 1-25 uM)” and the Emax was less than 200%.
`O=C(Nc1nccs1)c1cccn2cc(-c3ccc(N4CCOCC4)cc3)nc12` [Compound 183]: the EC1.5 result is recorded as “C (EC1.5>25 uM)” and the Emax was less than 200%.
For `O=C(Nc1ccccn1)c1cccn2cc(-c3ccc(N4CCOCC4)cc3)nc12` [Compound 184], the EC1.5 entry is given as “C (EC1.5>25 uM)” and the Emax was less than 200%.
With `O=C(Nc1nccs1)c1nccn2cc(-c3ccccc3OC(F)(F)F)nc12` [Compound 185], the EC1.5 entry is “B (EC1.5 1-25 uM)” and the Emax is greater than 200%.
As for `O=C(Nc1ccccn1)c1nccn2cc(-c3ccccc3OC(F)(F)F)nc12` [Compound 186], the EC1.5 entry is “B (EC1.5 1-25 uM)” and the maximal effect (Emax) is greater than 200%.
Take `Cc1cnc(NC(=O)c2nccn3cc(-c4ccccc4OC(F)(F)F)nc23)s1` [Compound 187]: the EC1.5 entry is “B (EC1.5 1-25 uM)” and the Emax was greater than 200%.
The corresponding values for `O=C(Nc1nccs1)c1nccn2cc(-c3ccc(F)cc3C(F)(F)F)nc12` [Compound 188] are “B (EC1.5 1-25 uM)” and greater than 200%.
The corresponding values for `O=C(Nc1ccccn1)c1nccn2cc(-c3ccc(F)cc3C(F)(F)F)nc12` [Compound 189] are “B (EC1.5 1-25 uM)” and greater than 200%.
Consider `Cc1cnc(NC(=O)c2nccn3cc(-c4ccc(F)cc4C(F)(F)F)nc23)s1` [Compound 190], for which the EC1.5 entry is given as “A (EC1.5<1.0 uM)” and the maximum response (Emax) is greater than 200%.
For the compound `O=C(Nc1cccnn1)c1nccn2cc(-c3ccc(F)cc3C(F)(F)F)nc12` [Compound 191], the EC1.5 entry is reported as “B (EC1.5 1-25 uM)” and the Emax is greater than 200%.
For `O=C(Nc1nc(CN2CCOCC2)cs1)c1cccn2cc(-c3cc(F)cc(F)c3)nc12` [Compound 192] the same measures were “A (EC1.5<1.0 uM)” and greater than 200%.
Take `O=C(Nc1cccc(CN2CCOCC2)n1)c1cccn2cc(-c3cc(F)cc(F)c3)nc12` [Compound 193]: the EC1.5 result is “A (EC1.5<1.0 uM)” and the Emax is greater than 200%.
For `O=C(Nc1nc(CN2CCOCC2)cs1)c1nccn2cc(-c3ccc(F)c(F)c3)nc12` [Compound 194] the same measures were “B (EC1.5 1-25 uM)” and greater than 200%.
The corresponding values for `O=C(Nc1cccc(CN2CCOCC2)n1)c1cccn2cc(-c3ccc(F)c(F)c3)nc12` [Compound 195] are “B (EC1.5 1-25 uM)” and greater than 200%.
The corresponding values for `O=C(Nc1nc(CN2CCOCC2)cs1)c1cccn2cc(-c3cc(F)c(F)c(F)c3)nc12` [Compound 196] are “B (EC1.5 1-25 uM)” and less than 200%.
Regarding `O=C(Nc1cccc(CN2CCOCC2)n1)c1cccn2cc(-c3cc(F)c(F)c(F)c3)nc12` [Compound 197], the EC1.5 entry is “B (EC1.5 1-25 uM)” and the Emax was greater than 200%.
The corresponding values for `O=C(Nc1nc(CN2CCOCC2)cs1)c1cccn2cc(-c3ccc(F)cc3F)nc12` [Compound 198] are “A (EC1.5<1.0 uM)” and less than 200%.
The corresponding values for `O=C(Nc1cccc(CN2CCOCC2)n1)c1cccn2cc(-c3ccc(F)cc3F)nc12` [Compound 199] are “B (EC1.5 1-25 uM)” and less than 200%.
For the compound `O=C(Nc1nc(CN2CCOCC2)cs1)c1cccn2cc(-c3cc(F)ccc3F)nc12` [Compound 200], the EC1.5 entry is “A (EC1.5<1.0 uM)” and the Emax was greater than 200%.
For the compound `O=C(Nc1cccc(CN2CCOCC2)n1)c1cccn2cc(-c3cc(F)ccc3F)nc12` [Compound 201], the EC1.5 entry is on record as “A (EC1.5<1.0 uM)” and the Emax is greater than 200%.
Consider `O=C(Nc1nccs1)c1cccn2cc(-c3ccc(C(F)F)cc3)nc12` [Compound 202, 2-(4-(difluoromethyl)phenyl)-N-(thiazol-2-yl)imidazo[1,2-a]pyridine-8-carboxamide], for which the EC1.5 entry is on record as “C (EC1.5>25 uM)” and the Emax is less than 200%.
The corresponding values for `O=C(Nc1ccccn1)c1cccn2cc(-c3ccc(C(F)F)cc3)nc12` [Compound 203] are “C (EC1.5>25 uM)” and less than 200%.
For `O=C(Nc1nc(CN2CCOCC2)cs1)c1cccn2cc(-c3ccc(C(F)F)cc3)nc12` [Compound 204] the same measures were “B (EC1.5 1-25 uM)” and greater than 200%.
